Columns and labels:
[1] = tested on: spontaneously hypertensive rats; assay: Chronic oral nalfurafine, radiotelemetry blood pressure (FIG. 18); type: in vivo, rat; conditions: nalfurafine 0.5 mg/kg oral once per day for 5 weeks
Method: Male spontaneously hypertensive rats (SHR; Charles Rivers) were single housed and allowed tap water and standard rodent diet ad libitum. All procedures and experiments were conducted in accordance with the National Institutes of Health guidelines for the care and use of animals.
Radiotelemetry transmitters (Data Sciences International, St. Paul, MN) were implanted into SHR for chronic recording of blood pressure and heart rate and followed as previously published.^56 Briefly, rats were anesthetized and maintained on 2% isoflurane and the right femoral artery was surgically exposed. The transmitter catheter was inserted into the femoral artery and advanced until reaching the abdominal aorta. The site exposing the femoral artery was sutured and rats were allowed 1 week of recovery. Telemetry data was analyzed using Ponemah software (DSI, St. Paul, MN).
Spontaneously hypertensive rats were orally administered (gavage) nalfurafine (0.5 mg/kg) or vehicle (water) once per day for 5 weeks following recovery from radiotelemetry transmitter insertion. Blood pressure was recorded once per week and the 12:00-14:00 time frame was plotted.
All results are expressed as mean±SEM. Statistically different changes for both experimental protocols were determined using 2-way ANOVA with repeated measures and were considered statistically different following a significant/value for an interaction between experimental group and time. Statistical significance was determined as P<0.05, and statistics were performed on Prism 7.05 software (GraphPad Software, Inc, San Diego, CA).

[2] = tested on: conscious Sprague-Dawley rats; assay: Acute cardiovascular and renal excretory studies with ICV or IV norBNI pretreatment (Example 4); type: in vivo, rat; conditions: for Total urine output: difelikefalin 10 μg/kg or nalfurafine 5 μg/kg IV, 90 min; for Urine osmolality / Urine potassium concentration [K+] / Urine sodium concentration [Na+]: total 90-min urine
Method: Male Sprague-Dawley rats (Envigo Labs, Indianapolis, IN) were individually housed, allowed tap water and standard rodent diet ad libitum, and kept under a 12-hour light-dark cycle. Rats used in these experiments weighed between 300 and 350 grams and were randomly assigned to experimental groups. All procedures were conducted in accordance with the National Institutes of Health guidelines for the care and use of animals and approved by the Louisiana State University Health Sciences Center Institutional Animal Care and Use Committee.
Aseptic technique was adhered to for all surgeries and detailed surgical methods were followed as previously described.^14 Briefly, 3-5 days before experimentation, rats requiring central ventricle access for administration of drug/vehicle into the brain were anesthetized with ketamine and xylazine and a stainless-steel cannula was stereotaxically implanted into the right lateral cerebral ventricle.^14
On the morning of the experiment, rats were anesthetized and maintained with inhaled 2% isoflurane, and polyethylene catheters were surgically placed into the left femoral artery, left femoral vein, and urinary bladder.^15.16 Following surgery, rats were placed in an elevated restrainer for recovery and collection of urine from an indwelling bladder catheter.^15 After completion of experimental protocols, rats were anesthetized with isoflurane and decapitated.
During stabilization of cardiovascular and renal excretory parameters, rats received an isotonic saline infusion (55 μl/min), which lasted throughout the duration of the experiment. To record mean arterial pressure (MAP) and heart rate (HR), arterial catheters were connected to a pressure transducer (MLT0670, ADInstruments, Sydney, Australia), which was connected to Powerlab 8/30 (ADInstruments) and visualized using LabChart software (v8.1.5; ADInstruments). After one hour of recovery from surgery, rats were pretreated with the KOR antagonist norBNI or isotonic saline vehicle through either an intracerebroventricular (ICV) catheter or intravenous (IV) catheter. […] Next, drug or vehicle (isotonic saline) was injected into the femoral vein and urine samples were collected every 10 minutes during a 90-minute experimental period. The following drug concentrations were used: nalfurafine 5 μg/kg, difelikefalin 10 μg/kg, norBNI 30 mg/kg (IV), norBNI 1 μg/5 μL (ICV). All groups are n=6. Urine sodium and potassium were measured using a flame photometer (model 943; Instrumentation Laboratories, Lexington, MA). Urine volume was measured gravimetrically, and urine osmolality was measured using a vapor pressure osmometer (model 5600; WESCOR, Logan, UT).
All results are expressed as mean±SEM. For determining statistically different changes at time points within a treatment group, means were compared to the control value using 2-way ANOVA with repeated measures and a post hoc Dunnett test following confirmation of a significant F value. For statistically different changes at individual time points between treatment groups, mean values were compared using 2-way ANOVA with repeated measures and a post hoc Sidak test following confirmation of a significant/value. For means between groups for total urine output, urine sodium concentration, urine potassium concentration, and urine osmolality, a Student/test was used. Statistical significance was characterized as P<0.05 and statistics were performed on Prism 7.05 software (GraphPad Software, Inc, San Diego, CA).

[3] = ICV norBNI (1 μg/5 μL) pretreatment
[4] = IV norBNI (30 mg/kg) pretreatment

## CN(C(=O)/C=C/c1ccoc1)[C@@H]1CC[C@@]2(O)[C@H]3Cc4ccc(O)c5c4[C@@]2(CCN3CC2CC2)[C@H]1O5 [nalfurafine, Nalfurafine]
[1]
  Diastolic blood pressure and heart rate vs vehicle: no significant interaction between treatment over time for diastolic blood pressure or heart rate
[1]; 12:00-14:00 time frame
  Mean arterial pressure vs vehicle: significantly lower mean arterial pressure at the 3-week time point
  Systolic blood pressure vs vehicle: significantly lower in the nalfurafine group compared to vehicle at 3, 4, and 5 weeks
[2]; [3]
  Effect on MAP: prevented the decrease in MAP
  Total urine output: 4.72 ± 0.41 mL
  Urine osmolality: 358.5 ± 30.6 mmol/kg
  Urine potassium concentration [K+]: 12.77±3.99 μeq/mL
  Urine sodium concentration [Na+]: 82.33±7.74 μeq/mL
[2]; ICV vehicle (5 μL) pretreatment
  Total urine output: 8.37 ± 0.40 mL
[2]; ICV vehicle pretreatment
  Effect on HR: slight but statistically significant increase in HR
  Urine osmolality: 164 ± 8.09 mmol/kg
  Urine potassium concentration [K+]: 8.19±2.15 μeq/mL
  Urine sodium concentration [Na+]: 37.78±5.35 μeq/mL
[2]; ICV vehicle pretreatment, peak at 60 min (difelikefalin), 50 min (nalfurafine)
  MAP peak Δ: −6 mmHg
[2]; [4]
  Effect on HR: did not produce any change in HR
  Total urine output: 5.03 ± 0.39 mL
  Urine osmolality: 439.2 ± 24.02 mmol/kg
  Urine potassium concentration [K+]: 10.94±1.09 μeq/mL
  Urine sodium concentration [Na+]: 109.1±7.85 μeq/mL
[2]; IV norBNI (30 mg/kg) pretreatment, 80-minute peak for difelikefalin
  MAP peak Δ: abolished
[2]; IV vehicle (2 cc/kg) pretreatment
  Total urine output: 9.37 ± 0.42 mL
[2]; IV vehicle pretreatment
  Effect on HR: did not produce any change in HR
  Urine osmolality: 148.7 ± 4.4 mmol/kg
  Urine potassium concentration [K+]: 5.49±0.68 μeq/mL
  Urine sodium concentration [Na+]: 32.56±3.05 μeq/mL

Reference: US20240180895A1, “USE OF KAPPA OPIOID RECEPTOR AGONISTS TO TREAT CARDIOVASCULAR DISEASE” (Board of Supervisors of Louisiana State University and …, priority 2021, published 2024)
